The values that follow are results of earlier work, collected in US20070298098A1, “Controlled Release Compositions Comprising Levetiracetam” (ELAN PHARMA INTERNATIONAL LIMITED, priority 2005, published 2007).

SMILES strings stand for the structures. “Also recorded” adds a separate entry of the source.

Turning to `CC[C@@H](C(N)=O)N1CCCC1=O` (single isomer, unassigned) [Levetiracetam], the plasma half-life (across studies) is 6 to 8 h. Also, the linearity of pharmacokinetics result (dose range of 500-5000 mg) is on record as “linear”. Also, for the setting “in vivo”, the “dependence of metabolism on liver cytochrome P450” value was “not liver cytochrome P450 dependent”; the “dose renally excreted unchanged” value is listed as 66%; the “major metabolic pathway (enzymatic hydrolysis of the acetamide group), share of dose” value is given as 24 % of dose. Where the note is “multiple twice-daily dosing”, the “time to steady state” value is 2 days. Further, the “time of peak plasma concentrations” value (oral administration, fasted subjects) was “about an hour”. For the setting “with food”, the “decrease of Cmax by food” value is on record as 20%, the “delay of Tmax by food” value was 1.5 h and the “effect of food on extent of bioavailability / absorption” value is “not affected by food; also recorded: Food does not affect the extent of absorption”.
